Measurements as given in ChEMBL document CHEMBL1130148, “Synthesis and study of thiocarbonate derivatives of choline as potential inhibitors of acetylcholinesterase” (J Med Chem, 1997).

What was measured:
Acetylcholinesterase [1] = target: T1, Acetylcholinesterase (Bos taurus, UniProt P23795); assay: Inhibition of Acetylcholinesterase activity of calf forebrain
T1 sequence (P23795 whole entry): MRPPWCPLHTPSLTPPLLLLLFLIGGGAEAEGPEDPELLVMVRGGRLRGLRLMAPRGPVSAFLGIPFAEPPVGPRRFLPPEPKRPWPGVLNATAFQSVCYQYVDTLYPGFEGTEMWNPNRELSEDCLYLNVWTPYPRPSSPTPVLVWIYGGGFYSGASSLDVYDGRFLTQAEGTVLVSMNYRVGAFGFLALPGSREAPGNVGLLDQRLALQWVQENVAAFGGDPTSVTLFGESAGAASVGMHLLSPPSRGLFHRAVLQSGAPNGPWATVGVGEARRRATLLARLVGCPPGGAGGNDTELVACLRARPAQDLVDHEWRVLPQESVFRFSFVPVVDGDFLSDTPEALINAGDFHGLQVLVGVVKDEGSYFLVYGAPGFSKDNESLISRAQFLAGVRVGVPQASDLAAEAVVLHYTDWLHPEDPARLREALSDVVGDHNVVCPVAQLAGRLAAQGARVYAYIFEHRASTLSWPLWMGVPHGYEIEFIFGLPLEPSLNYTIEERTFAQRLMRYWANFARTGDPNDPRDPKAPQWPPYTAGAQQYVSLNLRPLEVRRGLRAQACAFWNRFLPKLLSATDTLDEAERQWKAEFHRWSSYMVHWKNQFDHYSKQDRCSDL

Acetylcholinesterase [2] = target: T2, Acetylcholinesterase (Homo sapiens, UniProt P22303); assay: Inhibition of Acetylcholinesterase from human red blood cells
T2 sequence (P22303 whole entry): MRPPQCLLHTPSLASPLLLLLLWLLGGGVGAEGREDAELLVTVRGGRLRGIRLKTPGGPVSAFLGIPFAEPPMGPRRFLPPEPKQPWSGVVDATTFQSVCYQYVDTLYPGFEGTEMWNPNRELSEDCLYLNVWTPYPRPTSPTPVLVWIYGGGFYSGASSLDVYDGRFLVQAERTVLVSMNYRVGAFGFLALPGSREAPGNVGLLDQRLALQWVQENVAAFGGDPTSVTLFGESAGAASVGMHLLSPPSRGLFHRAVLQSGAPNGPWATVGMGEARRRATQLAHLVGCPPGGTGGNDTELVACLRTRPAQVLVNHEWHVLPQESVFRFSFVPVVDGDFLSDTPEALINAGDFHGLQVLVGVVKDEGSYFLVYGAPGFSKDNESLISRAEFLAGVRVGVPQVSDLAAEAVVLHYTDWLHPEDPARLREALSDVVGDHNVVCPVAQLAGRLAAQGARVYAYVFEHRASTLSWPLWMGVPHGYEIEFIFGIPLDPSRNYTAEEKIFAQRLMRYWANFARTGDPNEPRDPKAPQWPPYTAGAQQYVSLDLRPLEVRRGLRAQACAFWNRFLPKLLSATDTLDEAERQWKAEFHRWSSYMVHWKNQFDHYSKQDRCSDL

Acetylcholinesterase [3] = target: T1, Acetylcholinesterase; assay: Binding affinity against Acetylcholinesterase of purified calf forebrain (CFB)
Acetylcholinesterase [4] = target: T2, Acetylcholinesterase; assay: Binding affinity against Acetylcholinesterase of human RBC
Acetylcholinesterase [5] = target: T1, Acetylcholinesterase; assay: In vitro inhibition of Acetylcholinesterase activity from calf fore brain was evaluated using 1 mM of ATC as substrate; NI=Not inhibitory
Acetylcholinesterase [6] = target: T2, Acetylcholinesterase; assay: In vitro inhibition of Acetylcholinesterase activity from human red blood cells was evaluated using 1 mM of ATC as substrate; NI=Not inhibitory

SMILES | IC50 (Acetylcholinesterase [1]) | IC50 (Acetylcholinesterase [2]) | Ki (Acetylcholinesterase [3]) | Ki (Acetylcholinesterase [4]) | IC50 (Acetylcholinesterase [5]) | IC50 (Acetylcholinesterase [6])
CCc1ccc(SC(=O)OCC[N+](C)(C)C)cc1 | 100 µM | 500 µM |  |  |  | 
CCSC(=O)OCC[N+](C)(C)C | > 10000 µM | > 10000 µM |  |  |  | 
CCC(C)CSC(=O)OCC[N+](C)(C)C.[Cl-] (stereo not given) | 800 µM | 1000 µM |  |  |  | 
CCN(CC)CCNC(=O)c1ccc(N)cc1 [PROCAINAMIDE] | 0.5 µM | 1 µM | 1 µM | 1 µM |  | 
CCc1ccccc1SC(=O)OCC[N+](C)(C)C.[Cl-] | 10 µM | 50 µM |  |  |  | 
CC(C)(C)SC(=O)OCC[N+](C)(C)C.[Cl-] |  |  |  |  | No inhibition | No inhibition
CC(C)SC(=O)OCC[N+](C)(C)C.[Cl-] |  |  |  |  | No inhibition | No inhibition
C[N+](C)(C)CCOC(=O)Sc1ccccc1.[Cl-] | 100 µM | 1000 µM |  |  |  | 
CCCSC(=O)OCC[N+](C)(C)C | > 1000 µM | > 5000 µM |  |  |  | 
CCCCCSC(=O)OCC[N+](C)(C)C | 1 µM | 0.8 µM | 1 µM |  |  | 
CCC(C)(C)SC(=O)OCC[N+](C)(C)C.[Cl-] | 10 µM | 40 µM |  |  |  | 
CCCCSC(=O)OCC[N+](C)(C)C | 100 µM | 500 µM |  |  |  | 
CC(C)CCSC(=O)OCC[N+](C)(C)C | 10 µM | 50 µM |  |  |  | 
CCCCCCSC(=O)OCC[N+](C)(C)C | 20 µM | 80 µM |  |  |  | 
CCCCCCCSC(=O)OCC[N+](C)(C)C | 10 µM | 50 µM | 10 µM | 20 µM |  | 
